Test results published in patent publication US20100227401A1, “MEDIA AND PROCESSES FOR THE EX VIVO PRODUCTION OF MEGAKARYOCYTES FROM HUMAN CD34+ CELLS” (FOOD INDUSTRY RESEARCH AND DEVELOPMENT INSTITUTE, priority 2003, published 2010).

Columns and labels:
[1] = test system: serum-free expanded CD34^+ cells; test: Ex vivo Mk induction from serum-free expanded CD34+ cells, 1-week induction, TNC count and Mk count (CD41a+CD61+); type: cell-based, human; details: preliminary screening of serum substitutes (data not shown)
Protocol: Each experiment was repeated at least four times. […] (1978), Statistics for Experimenters: An Introduction to Design, Data Analysis, and Model Building, Wiley, New York). In addition, the statistical significance was determined by an F-test, and the significance of the regression coefficient was analyzed by a t-test. […] After cultivation for 1 week, the cells were collected and subjected to the TNC count as described above and a megakaryocyte count (Mk count) so as to evaluate the ex vivo megakaryocytopoietic effects of the tested serum substitutes and cytokines. The Mk count was conducted by labeling the collected cells with CD41a-FITC and CD61-PE and analyzed according to the operating procedure described in the following section, entitled “4. […] The incubation was terminated by washing three times with 1 mL FACS buffer. Optionally, the first antibody-labeled cells were further incubated with a second antibody conjugated with PE or FITC in the same manner. After washing with FACS buffer, the labeled cells were resuspended in 1 mL FACS buffer and analyzed on a FACSCalibur analyzer (Becton-Dickinson, NJ, USA). The data were analyzed by CellQuest software. A replicate sample incubated with FITC- or PE-conjugated mouse IgG1 was used as an isotype control for specificity. […] SF-Mk as established in Example 1, IMDM+10% FBS, IMDM+2% FBS, […]-VIVO 10, X-VIVO 15, X-VIVO 20,[…], DMEM, RPMI 1640, α-MEM, BME medium, […] medium, and Medium 199, respectively. IMDM+10% FBS, IMDM+2% FBS, […]-VIVO 10, X-VIVO 15, X-VIVO 20,[…], DMEM, RPMI 1640, α-MEM, BME medium, […] medium and Medium 199 were respectively supplemented with the cytokine cocktail (CC) as screened in Example 1. […] After 1-week induction, the Mk number of each group was calculated. […] IMDM supplemented with a serum substitute consisting of 4.9 g/L BSA, 2.72 μg/mL insulin, and 80 μg/mL transferrin (based on the applicants' previous study, unpublished data) and the reference cytokine cocktail as previously reported in Te-Wei Chen et al. (2009), supra; and • (3) FBS group: IMDM supplemented with 10% FBS and the reference cytokine cocktail.

[2] = test system: hematopoietic progenitor cells (HPCs); details: cited from earlier work
CD34^+-selected cells = details: PMP 200 ng/mL; TPO 10 ng/mL, IL-3 10 ng/mL; cited from earlier work
[3] = mpIL added to growth factor cocktail

| Molecule | effect on ex vivo megakaryocytopoiesis [1] | also measured |
| --- | --- | --- |
| NC(=O)CC[C@H](N)C(=O)O [L-glutamine] | no effect |  |
| CC(=O)C(=O)[O-].[Na+] [sodium pyruvate] | no effect |  |
| mpIL: recombinant mpl ligand |  | Mk purity level [2, 3]: 80%; final yield of Mks [2, 3]: 4×10^5; cell number ([2]; mpIL alone): 1.5×10^5 cells |
| promegapoietin [PMP] |  | megakaryocytopoietic activity (CD34^+-selected cells): comparable to that achieved with TPO plus IL-3 |
| transferrin | significantly positive effects |  |
| OCCS [Step 2-ME, 2-mercaptoethanol] | no effect |  |
| insulin | significantly positive effects |  |
